According to patent publication US10039759B2, “Quinolines as FGFR kinase modulators” (priority 2011, dated 2018):

How the values were obtained:
[1] = test system: Ba/F3-Flt3-transfected cells; assay: Ba/F3-Flt3 (minus IL3 or plus IL3) cellular proliferation assay, Alamar Blue; type: cell-based; settings: plus IL3 (10 ng/ml murine IL3, counterscreen), 24 hours
Procedure: Ba/F3-Flt3 (Minus IL3 or Plus IL3) (Cellular Proliferation Assay)
In a 384 well plate, 100 nl of compound dilution in DMSO was sprayed before adding 50 μl cell culture medium (phenol red free RPMI-1640, 10% FBS, 2 mM L-Glutamine and 50 μg/ml Gentamycin) containing 20000 cells per well of Ba/F3-Flt3-transfected cells. Cells were put in an incubator at 37° C. and 5% CO2. After 24 hours, 10 μl of Alamar Blue solution (0.5 mM K3Fe(CN)6, 0.5 mM K4Fe(CN)6, 0.15 mM Resazurin and 100 mM Phosphate Buffer) was added to the wells, incubated for 4 hours at 37° C. and 5% CO2 before RFU's (Relative Fluorescence Units) (ex. 540 nm., em. 590 nm.) were measured in a fluorescence plate reader.
In this assay, the inhibitory effect of different compound concentrations (range 10 μM to 0.1 nM) was determined and used to calculate an IC50 (M) and pIC50 (−log IC50) value. As a counterscreen the same experiment was performed in the presence of 10 ng/ml murine IL3.

[2] = test system: Ba/F3-FGFR1-transfected cells; assay: Ba/F3-FGFR1 (minus IL3 or plus IL3) cellular proliferation assay, Alamar Blue; type: cell-based; settings: plus IL3 (10 ng/ml murine IL3, counterscreen), 24 hours
Method in brief: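 Ba/F3-FGFR1 cells (20000/well) were treated with compound (10 μM–0.1 nM) for 24 h at 37 °C. Alamar Blue was then added for 4 h, with fluorescence read at ex 540/em 590 nm to give IC50/pIC50. A counterscreen was run with 10 ng/ml murine IL3.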

## COc1cc(OC)cc(N(CC(O)C(F)(F)F)c2ccc3ncc(-c4cnn(C)c4)cc3c2)c1 (single isomer, unassigned) [Compound 25]
[1]
  BAF3-FLT3 (PLUS IL3 Alamar Blue pIC50): <5
[2]
  BAF3-FGFR1 (PLUS IL3 pIC50): <5
